The molecules below were run against Heat shock protein HSP 90-beta (Homo sapiens, UniProt P08238) (assay: Binding affinity to human recombinant HSP90).
Heat shock protein HSP 90-beta, sequence (P08238 whole entry): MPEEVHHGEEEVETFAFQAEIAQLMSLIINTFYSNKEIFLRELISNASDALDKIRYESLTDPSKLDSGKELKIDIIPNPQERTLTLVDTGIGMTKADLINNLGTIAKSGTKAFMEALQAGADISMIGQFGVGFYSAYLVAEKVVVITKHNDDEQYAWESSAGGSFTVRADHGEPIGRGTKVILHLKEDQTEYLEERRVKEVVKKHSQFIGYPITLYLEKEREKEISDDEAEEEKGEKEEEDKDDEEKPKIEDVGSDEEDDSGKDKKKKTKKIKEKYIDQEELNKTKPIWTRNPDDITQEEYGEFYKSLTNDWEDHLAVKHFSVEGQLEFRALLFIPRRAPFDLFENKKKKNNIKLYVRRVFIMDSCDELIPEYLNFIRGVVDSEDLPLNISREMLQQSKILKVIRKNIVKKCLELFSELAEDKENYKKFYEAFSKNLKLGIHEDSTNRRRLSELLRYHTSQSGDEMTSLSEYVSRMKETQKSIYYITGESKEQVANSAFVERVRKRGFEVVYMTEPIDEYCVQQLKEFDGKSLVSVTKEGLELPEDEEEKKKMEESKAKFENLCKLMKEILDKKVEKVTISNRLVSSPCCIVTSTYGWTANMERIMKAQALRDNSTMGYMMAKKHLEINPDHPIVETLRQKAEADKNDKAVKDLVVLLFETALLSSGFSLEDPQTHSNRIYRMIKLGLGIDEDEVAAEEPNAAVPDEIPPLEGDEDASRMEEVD
For `CO[C@H]1C=CC=C(C)C(=O)Nc2cc(O)c(N=CCN(C)C)c(c2O)C[C@@H](C)C[C@H](OC)[C@H](NCCF)[C@@H](C)/C=C(\C)[C@@H]1OC(N)=O`, the Kd was greater than 50000 nM. `CO[C@H]1C[C@H](C)Cc2c(O)c(cc(O)c2N=CCF)NC(=O)C(C)=CC=C[C@H](OC)[C@@H](OC(N)=O)C(C)=C[C@H](C)C1N=O` (stereo partly drawn) [(8S,9S,12S,13E,14S,16R)-19-(2-fluoroethylamino)-13-(hydroxyimino)-8,14-dimethoxy-4,10,12,16-tetramethyl-3,20,22-trioxo-2-azabicyclo[16.3.1]docosa-1(21),4,6,10,18-pentaen-9-yl carbamate] gave a Kd greater than 25000 nM. In the case of `C=CCO[C@H]1[C@@H](OC)CC(C)=Cc2c(O)c(cc(O)c2N2CCC2)NC(=O)C(C)=CC=C[C@H](OC)[C@@H](OC(N)=O)/C(C)=C/[C@@H]1C` [11-O-Allyl-17-(1-azetidinyl)-17-demethoxygeldanamycin], the Kd is reported as 2900 nM. `CO[C@H]1C=CC=C(C)C(=O)Nc2cc(O)c(N=CCN(C)C)c(c2O)C[C@@H](C)C[C@H](OC)[C@H](NCCC(F)(F)F)[C@@H](C)/C=C(\C)[C@@H]1OC(N)=O` [(8S,9S,12S,13R,14S,16R)-19-(2-(dimethylamino)ethylamino)-8,14-dimethoxy-4,10,12,16-tetramethyl-3,20,22-trioxo-13-(3,3,3-trifluoropropylamino)-2-azabicyclo[16.3.1]docosa-1(21),4,6,10,18-pentaen-9-yl carbamate] was tested, and the Kd was greater than 10000 nM. `C=CC=Nc1c(O)cc2c(O)c1C[C@@H](C)C[C@H](OC)[C@H](OC(=O)CN)[C@@H](C)/C=C(\C)[C@H](OC(N)=O)[C@@H](OC)C=CC=C(C)C(=O)N2` [(8S,9S,12S,13R,14S,16R)-19-(allylamino)-9-(carbamoyloxy)-8,14-dimethoxy-4,10,12,16-tetramethyl-3,20,22-trioxo-2-azabicyclo[16.3.1]docosa-1(21),4,6,10,18-pentaen-13-yl 2-aminoacetate] was tested, and the Kd was greater than 25000 nM. `CO[C@H]1C=CC=C(C)C(=O)Nc2cc(O)c(N=CCN3CCC3)c(c2O)C[C@@H](C)C[C@H](OC)[C@H](O)[C@@H](C)/C=C(\C)[C@@H]1OC(N)=O` [(8S,9S,12S,13R,14S,16R)-19-(2-(azetidin-1-yl)ethylamino)-13-hydroxy-8,14-dimethoxy-4,10,12,16-tetramethyl-3,20,22-trioxo-2-azabicyclo[16.3.1]docosa-1(21),4,6,10,18-pentaen-9-yl carbamate] was tested, and the Kd was 400 nM. `CO[C@H]1C[C@H](C)Cc2c(O)c(cc(O)c2N=CCN(C)C)NC(=O)C(C)=CC=C[C@H](OC)[C@@H](OC(N)=O)C(C)=C[C@H](C)C1N=O` (stereo partly drawn) [(8S,9S,12S,14S,16R)-19-(2-(dimethylamino)ethylamino)-13-(hydroxyimino)-8,14-dimethoxy-4,10,12,16-tetramethyl-3,20,22-trioxo-2-azabicyclo[16.3.1]docosa-1(21),4,6,10,18-pentaen-9-yl carbamate] gave a Kd greater than 10000 nM. `CO[C@H]1[C@@H](OC)C[C@H](C)Cc2c(O)c(cc(O)c2N=CCN2CCCC2)NC(=O)C(C)=CC=C[C@H](OC)[C@@H](OC(N)=O)/C(C)=C/[C@@H]1C` [(8S,9S,12S,13R,14S,16R)-8,13,14-trimethoxy-4,10,12,16-tetramethyl-3,20,22-trioxo-19-(2-(pyrrolidin-1-yl)ethylamino)-2-azabicyclo[16.3.1]docosa-1(21),4,6,10,18-pentaen-9-yl carbamate] was tested, and the Kd was 1000 nM. Work on `CO[C@H]1C=CC=C(C)C(=O)Nc2cc(O)c(N=CCN(C)C)c(c2O)C[C@@H](C)C[C@H](OC)[C@H](NCC(F)(F)F)[C@@H](C)/C=C(\C)[C@@H]1OC(N)=O` [(8S,9S,12S,13R,14S,16R)-19-(2-(dimethylamino)ethylamino)-8,14-dimethoxy-4,10,12,16-tetramethyl-3,20,22-trioxo-13-(2,2,2-trifluoroethylamino)-2-azabicyclo[16.3.1]docosa-1(21),4,6,10,18-pentaen-9-yl carbamate] yielded a Kd of 4000 nM. With `CO[C@H]1C[C@H](C)Cc2c(O)c(cc(O)c2N=CCN(C)C)NC(=O)C(C)=CC=C[C@H](OC)[C@@H](OC(N)=O)/C(C)=C/[C@H](C)/C1=N\OCC(=O)O` [2-(((8S,9S,12S,14S,16R)-9-(carbamoyloxy)-19-(2-(dimethylamino)ethylamino)-8,14-dimethoxy-4,10,12,16-tetramethyl-3,20,22-trioxo-2-azabicyclo[16.3.1]docosa-1(21),4,6,10,18-pentaen-13-ylidene)aminooxy)acetic acid] the Kd was greater than 25000 nM. `CO[C@H]1C=CC=C(C)C(=O)Nc2cc(O)c(N=CCc3cnc[nH]3)c(c2O)C[C@@H](C)C[C@H](OC)[C@H](O)[C@@H](C)/C=C(\C)[C@@H]1OC(N)=O` [(8S,9S,12S,13R,14S,16R)-19-(2-(1H-imidazol-4-yl)ethylamino)-13-hydroxy-8,14-dimethoxy-4,10,12,16-tetramethyl-3,20,22-trioxo-2-azabicyclo[16.3.1]docosa-1(21),4,6,10,18-pentaen-9-yl carbamate] showed a Kd of 800 nM. `CO[C@H]1C=CC=C(C)C(=O)Nc2cc(O)c(N=CCF)c(c2O)C[C@@H](C)C[C@H](OC)[C@H](O)[C@@H](C)/C=C(\C)[C@@H]1OC(N)=O` [Carbamic acid (4E,6Z,10E)-(8S,9S,12S,13R,14S,16R)-19-(2-fluoro-ethylamino)-13-hydroxy-8,14-dimethoxy-4,10,12,16-tetramethyl-3,20,22-trioxo-2-aza-bicyclo[16.3.1]docosa-1(21),4,6,10,18-pentaen-9-yl ester] was tested, and the Kd was 800 nM. In the case of `CO[C@H]1[C@@H](OC)C[C@H](C)Cc2c(O)c(cc(O)c2N=CCN2CCC2)NC(=O)C(C)=CC=C[C@H](OC)[C@@H](OC(N)=O)/C(C)=C/[C@@H]1C` [(8S,9S,12S,13R,14S,16R)-19-(2-(azetidin-1-yl)ethylamino)-8,13,14-trimethoxy-4,10,12,16-tetramethyl-3,20,22-trioxo-2-azabicyclo[16.3.1]docosa-1(21),4,6,10,18-pentaen-9-yl carbamate], the Kd is reported as 1000 nM. In the case of `C=CC=Nc1c(O)cc2c(O)c1C[C@@H](C)C[C@H](OC)C(N=O)[C@@H](C)C=C(C)[C@H](OC(N)=O)[C@@H](OC)C=CC=C(C)C(=O)N2` (stereo partly drawn) [(8S,9S,12S,13E,14S,16R)-19-(allylamino)-13-(hydroxyimino)-8,14-dimethoxy-4,10,12,16-tetramethyl-3,20,22-trioxo-2-azabicyclo[16.3.1]docosa-1(21),4,6,10,18-pentaen-9-yl carbamate], the Kd is reported as greater than 10000 nM. In the case of `CO[C@H]1C=CC=C(C)C(=O)Nc2cc(O)c(N=CCN(C)C)c(c2O)C[C@@H](C)C[C@H](OC)[C@H](N)[C@@H](C)/C=C(\C)[C@@H]1OC(N)=O`, the Kd is reported as greater than 25000 nM. With `CO/N=C1/[C@@H](OC)C[C@H](C)Cc2c(O)c(cc(O)c2N=CCN(C)C)NC(=O)C(C)=CC=C[C@H](OC)[C@@H](OC(N)=O)/C(C)=C/[C@@H]1C` [(8S,9S,12S,14S,16R)-19-(2-(dimethylamino)ethylamino)-8,14-dimethoxy-13-(methoxyimino)-4,10,12,16-tetramethyl-3,20,22-trioxo-2-azabicyclo[16.3.1]docosa-1(21),4,6,10,18-pentaen-9-yl carbamate] the Kd was greater than 100000 nM. In the case of `C=CC=Nc1c(O)cc2c(O)c1C[C@@H](C)C[C@H](OC)[C@H](OC(=O)CCN)[C@@H](C)/C=C(\C)[C@H](OC(N)=O)[C@@H](OC)C=CC=C(C)C(=O)N2` [(8S,9S,12S,13R,14S,16R)-19-(allylamino)-9-(carbamoyloxy)-8,14-dimethoxy-4,10,12,16-tetramethyl-3,20,22-trioxo-2-azabicyclo[16.3.1]docosa-1(21),4,6,10,18-pentaen-13-yl 3-aminopropanoate], the Kd is reported as greater than 25000 nM. `CO[C@H]1C=CC=C(C)C(=O)Nc2cc(O)c(N=CCN3CCCC3)c(c2O)C[C@@H](C)C[C@H](OC)[C@H](O)[C@@H](C)/C=C(\C)[C@@H]1OC(N)=O` [(8S,9S,12S,13R,14S,16R)-13-hydroxy-8,14-dimethoxy-4,10,12,16-tetramethyl-3,20,22-trioxo-19-(2-(pyrrolidin-1-yl)ethylamino)-2-azabicyclo[16.3.1]docosa-1(21),4,6,10,18-pentaen-9-yl carbamate] gave a Kd of 400 nM. Work on `CO[C@H]1C[C@H](C)Cc2c(O)c(cc(O)c2N=CCN(C)C)NC(=O)C(C)=CC=C[C@H](OC)[C@@H](OC(N)=O)/C(C)=C/[C@H](C)/C1=N\OCCN(C)C` [(8S,9S,12S,14S,16R)-13-(2-(dimethylamino)ethoxyimino)-19-(2-(dimethylamino)ethylamino)-8,14-dimethoxy-4,10,12,16-tetramethyl-3,20,22-trioxo-2-azabicyclo[16.3.1]docosa-1(21),4,6,10,18-pentaen-9-yl carbamate] yielded a Kd greater than 100000 nM. Work on `CO[C@H]1C=CC=C(C)C(=O)Nc2cc(O)c(N=CCN(C)C)c(c2O)C[C@@H](C)C[C@H](OC)[C@H](NCC(F)F)[C@@H](C)/C=C(\C)[C@@H]1OC(N)=O` [(8S,9S,12S,13R,14S,16R)-13-(2,2-difluoroethylamino)-19-(2-(dimethylamino)ethylamino)-8,14-dimethoxy-4,10,12,16-tetramethyl-3,20,22-trioxo-2-azabicyclo[16.3.1]docosa-1(21),4,6,10,18-pentaen-9-yl carbamate] yielded a Kd of 2900 nM. For `CO[C@H]1C[C@H](C)Cc2c(O)c(cc(O)c2N=CCN(C)C)NC(=O)C(C)=CC=C[C@H](OC)[C@@H](OC(N)=O)/C(C)=C/[C@H](C)/C1=N\OCc1ccccc1`, the Kd was greater than 100000 nM. Molecule `CO[C@H]1[C@@H](OC)CC(C)=Cc2c(O)c(cc(O)c2N2CCC2)NC(=O)C(C)=CC=C[C@H](OC)[C@@H](OC(N)=O)/C(C)=C/[C@@H]1C` [(8S,9S,12S,13R,14S,16R)-19-(azetidin-1-yl)-8,13,14-trimethoxy-4,10,12,16-tetramethyl-3,20,22-trioxo-2-azabicyclo[16.3.1]docosa-1(21),4,6,10,18-pentaen-9-yl carbamate] has a Kd of 4000 nM. With `CO[C@H]1[C@@H](OC)C[C@H](C)Cc2c(O)c(cc(O)c2N=CCN(C)C)NC(=O)C(C)=CC=C[C@H](OC)[C@@H](OC(N)=O)/C(C)=C/[C@@H]1C` [11-O-Methyl-17-[2-(dimethylamino)ethyl]amino-17-demethoxygeldanamycin] the Kd was 800 nM. With `CNCC=Nc1c(O)cc2c(O)c1C[C@@H](C)C[C@H](OC)[C@H](OC(=O)CN)[C@@H](C)/C=C(\C)[C@H](OC(N)=O)[C@@H](OC)C=CC=C(C)C(=O)N2` [(8S,9S,12S,13R,14S,16R)-9-(carbamoyloxy)-8,14-dimethoxy-4,10,12,16-tetramethyl-19-(2-(methylamino)ethylamino)-3,20,22-trioxo-2-azabicyclo[16.3.1]docosa-1(21),4,6,10,18-pentaen-13-yl 2-aminoacetate] the Kd was greater than 25000 nM.

Reference: BindingDB's records for doi:10.1021/jm900098v (Kosan Biosciences, 2009)
